Measurements reported in US20220395497A1, “Cancer Treatment Using Camptothecin Derivatives” (priority 2019, published 2022).

Test system: adults with recurrence of glioblastoma multiforme (GBM)
Test: Phase 2 open-label study of IV AR-67 (7.5 mg/m2 once daily for 5 days, 21-day cycle) in recurrent GBM: tumor response (MRI, MacDonald criteria), PFS, disposition. Cohort 1 = not received or not recently failed (>90 days) bevacizumab; Cohort 2 = recently (<90 days) failed bevacizumab
Format: in vivo, human
Description: The primary objective in the rapid bevacizumab failure group (<90 days) was to determine the 2-month PFS.
This solution was reconstituted in dextrose 5% in water to a final concentration between 0.06-0.6 mg/mL Drug (7.5 mg/m2) was to be given until the onset of toxicity requiring discontinuation or tumor progression. Tumor response was assessed=14d after every second cycle and before every third cycle using MRI.

## CC[C@@]1(O)C(=O)OCc2c1cc1n(c2=O)Cc2c-1nc1ccc(O)cc1c2[Si](C)(C)C(C)(C)C [AR-67, (205)-7-tert-butyldimethysilyl-10-hydroxycamptothecin]
All Patients, N = 46
  Best Overall Response: Complete Response, patients: 0
  Best Overall Response: Progressive Disease, patients: 31
  Response at Study Completion or Discontinuation: Complete Response, patients: 0
  Response at Study Completion or Discontinuation: Progressive Disease, patients: 39
  Response at Study Completion or Discontinuation: Stable Disease, patients: 2
  Withdrawal due to Adverse event, patients (%): 2.2%
  Withdrawal due to Death, patients (%): 6.5%
  Withdrawal due to Disease progression, patients (%): 69.6%
Cohort 1, N = 31
  Best Overall Response: Complete Response, patients: 0
  Best Overall Response: Partial Response, patients: 3
  Best Overall Response: Progressive Disease, patients: 20
  Best Overall Response: Stable Disease, patients: 5
  Response at Study Completion or Discontinuation: Complete Response, patients: 0
  Response at Study Completion or Discontinuation: Partial Response, patients: 1
  Response at Study Completion or Discontinuation: Progressive Disease, patients: 28
  Response at Study Completion or Discontinuation: Stable Disease, patients: 0
  Withdrawal due to Death, patients (%): 6.5%
  Withdrawal due to Disease progression, patients (%): 77.4%
Cohort 2, N = 13
  Best Overall Response: Complete Response, patients: 0
  Best Overall Response: Partial Response, patients: 0
  Best Overall Response: Progressive Disease, patients: 10
  Response at Study Completion or Discontinuation: Complete Response, patients: 0
  Response at Study Completion or Discontinuation: Partial Response, patients: 0
  Response at Study Completion or Discontinuation: Progressive Disease, patients: 10
  Response at Study Completion or Discontinuation: Stable Disease, patients: 2
  Withdrawal due to Adverse event, patients (%): 7.7%
  Withdrawal due to Death, patients (%): 7.7%
  Withdrawal due to Disease progression, patients (%): 53.8%
In vivo
  efficacy, reason for study termination: lack of efficacy
rGBM patients who failed bevacizumab within 90 days of last dose
  outcome: fared poorly
rGBM patients who had never taken bevacizumab, or had not failed bev treatment within 90 days of last dose
  patients who surpassed the PFS6 endpoint: 20%
